Measured values from ChEMBL document CHEMBL4265965, “Dichloroacetophenones targeting at pyruvate dehydrogenase kinase 1 with improved selectivity and antiproliferative activity: Synthesis and structure-activity relationships” (Bioorg Med Chem Lett, 2018).
Active and inactive are the calls of the source. The rule behind the calls is not given here.

Experiments:
NCI-H1975 [1] = assay: Antiproliferative activity against human NCI-H1975 cells assessed as inhibition of cell proliferation at 12 uM after 72 hrs by MTT assay relative to control; type: functional; conditions: for inhibition at 12 µM: NCI-H1975, 72 h
NCI-H1975 [2] = assay: Antiproliferative activity against human NCI-H1975 cells assessed as inhibition of cell proliferation at 6 uM after 72 hrs by MTT assay relative to control; type: functional; conditions: for inhibition at 6 µM: NCI-H1975, 72 h
NCI-H1975 [3] = assay: Antiproliferative activity against human NCI-H1975 cells assessed as inhibition of cell proliferation at 2 uM after 72 hrs by MTT assay relative to control; type: functional; conditions: for inhibition at 2 µM: NCI-H1975, 72 h
NCI-H1650 [4] = assay: Antiproliferative activity against human NCI-H1650 cells assessed as inhibition of cell proliferation at 12 uM after 72 hrs by MTT assay relative to control; type: functional; conditions: for inhibition at 12 µM: NCI-H1650, 72 h
NCI-H1650 [5] = assay: Antiproliferative activity against human NCI-H1650 cells assessed as inhibition of cell proliferation at 6 uM after 72 hrs by MTT assay relative to control; type: functional; conditions: for inhibition at 6 µM: NCI-H1650, 72 h
NCI-H1650 [6] = assay: Antiproliferative activity against human NCI-H1650 cells assessed as inhibition of cell proliferation at 2 uM after 72 hrs by MTT assay relative to control; type: functional; conditions: for inhibition at 2 µM: NCI-H1650, 72 h
A549 [7] = assay: Antiproliferative activity against human A549 cells assessed as inhibition of cell proliferation at 12 uM after 72 hrs by MTT assay relative to control; type: functional; conditions: for inhibition at 12 µM: A549, 72 h
A549 [8] = assay: Antiproliferative activity against human A549 cells assessed as inhibition of cell proliferation at 6 uM after 72 hrs by MTT assay relative to control; type: functional; conditions: for inhibition at 6 µM: A549, 72 h
A549 [9] = assay: Antiproliferative activity against human A549 cells assessed as inhibition of cell proliferation at 2 uM after 72 hrs by MTT assay relative to control; type: functional; conditions: for inhibition at 2 µM: A549, 72 h
Sus scrofa = species: Sus scrofa; assay: Inhibition of porcine PDK1 assessed as activation of pyruvate dehydrogenase complex at 1 uM measured after 3 mins
[10] = biological target: [Pyruvate dehydrogenase (acetyl-transferring)] kinase isozyme 1, mitochondrial (Homo sapiens, UniProt Q15118); assay: Inhibition of recombinant human N-terminal His6/Sumo-tagged PDK1 (29 to 436 residues) expressed in Escherichia coli BL21 at 1 uM by kinase-glo luminescence assay relative to control

Row | SMILES | inhibition at 12 µM (NCI-H1975 [1]) [%] | inhibition at 6 µM (NCI-H1975 [2]) [%] | inhibition at 2 µM (NCI-H1975 [3]) [%] | inhibition at 12 µM (NCI-H1650 [4]) [%] | inhibition at 6 µM (NCI-H1650 [5]) [%] | inhibition at 2 µM (NCI-H1650 [6]) [%] | inhibition at 12 µM (A549 [7]) [%] | inhibition at 6 µM (A549 [8]) [%] | inhibition (A549 [9]) | inhibition (Sus scrofa) | inhibition [10] | inhibition (NCI-H1650 [6]) | inhibition at 2 µM (A549 [9]) [%] | inhibition (NCI-H1975 [1]) | inhibition (NCI-H1975 [2]) | inhibition (NCI-H1975 [3]) | inhibition (NCI-H1650 [4]) | inhibition (NCI-H1650 [5]) | inhibition (A549 [7]) | inhibition (A549 [8])
1 | CCCOc1ccc(C(=O)C(Cl)Cl)cc1[N+](=O)[O-] | 91.6 | 37.8 | 3.4 | 99.9 | 38 | 7.6 | 68.4 | 19.5 | inactive | Active | Active | – | – | – | – | – | – | – | – | –
2 | CCCCOc1ccc(C(=O)C(Cl)Cl)cc1[N+](=O)[O-] | 98.9 | 96.3 | 55.7 | 63.1 | 28.8 | – | 95.2 | 79.9 | – | Active | Active | inactive | 28.3 | – | – | – | – | – | – | –
3 | O=C(c1ccc(OCc2ccccc2)c([N+](=O)[O-])c1)C(Cl)Cl | 99 | 98.6 | 58.4 | 67.3 | 29.9 | – | 99.3 | 87.9 | – | Active | Active | inactive | 29.9 | – | – | – | – | – | – | –
4 | O=C(Oc1ccccc1)C(Cl)Cl | – | – | – | – | – | – | – | – | inactive | inactive | inactive | inactive | – | inactive | inactive | inactive | inactive | inactive | inactive | inactive
5 | CC(C)Oc1ccc(C(=O)C(Cl)(Cl)Cl)cc1[N+](=O)[O-] | 35.6 | – | – | 24.7 | – | – | 15.9 | – | inactive | Active | Active | inactive | – | – | inactive | inactive | – | inactive | – | inactive
6 | Cc1ccccc1NC(=O)C(Cl)Cl | 22.9 | 19.5 | – | 15.4 | 14.5 | – | 13.2 | 9.9 | inactive | inactive | inactive | inactive | – | – | – | inactive | – | – | – | –
7 | O=C(c1cccnc1)C(Cl)Cl | 52 | 9.3 | – | 56.5 | 29.1 | – | – | – | inactive | inactive | inactive | inactive | – | – | – | inactive | – | – | inactive | inactive
8 | O=C(c1ccccn1)C(Cl)Cl | 98.5 | 73.1 | 15.9 | 90.5 | 39.6 | 14.8 | 31.5 | 15.3 | – | 10.2% | inactive | – | 3.3 | – | – | – | – | – | – | –
9 | O=C(c1ccccc1Br)C(Cl)Cl | 49.5 | 14.3 | – | 0.4 | – | – | 17.5 | 6.1 | – | – | inactive | inactive | 1.4 | – | – | inactive | – | inactive | – | –
10 | O=C(c1ccccc1F)C(Cl)Cl | 48.6 | 12.8 | 4.4 | – | – | – | 13.6 | 10.1 | inactive | – | inactive | inactive | – | – | – | – | inactive | inactive | – | –
11 | CCCc1ccc(C(=O)C(Cl)Cl)cc1[N+](=O)[O-] | 99.8 | 69.5 | 31.5 | 99.8 | 60.2 | 29.8 | 65.2 | 8.9 | inactive | – | inactive | – | – | – | – | – | – | – | – | –
12 | Cc1cc(C(=O)C(Cl)Cl)ccc1Cl | 99.2 | 97.8 | 46.7 | 98.8 | 79.7 | 38.8 | 81 | 51.7 | – | – | 10.2% | – | 13.2 | – | – | – | – | – | – | –
13 | O=C(c1ccc(Cl)c(Cl)c1)C(Cl)Cl | 98.4 | 95.8 | 74.1 | 100 | 92.7 | 54 | 96.7 | 74.5 | – | – | inactive | – | 42.1 | – | – | – | – | – | – | –
14 | O=C(c1ccccc1Cl)C(Cl)Cl | 71 | 39 | 12.6 | 42.9 | 19.7 | 10.3 | 27.9 | 4.6 | inactive | – | inactive | – | – | – | – | – | – | – | – | –
15 | CCCCc1ccc(C(=O)C(Cl)Cl)cc1[N+](=O)[O-] | 100 | 65.2 | 39.8 | 97.5 | 57.2 | 22.3 | 56.9 | 12 | inactive | – | inactive | – | – | – | – | – | – | – | – | –
16 | O=C(c1ccc(Cl)c([N+](=O)[O-])c1)C(Cl)Cl | 100 | 99.8 | 98.4 | 100 | 100 | 96.3 | 99.8 | 86.7 | – | – | 41.7% | – | 34.7 | – | – | – | – | – | – | –
17 | O=C(c1ccccc1[N+](=O)[O-])C(Cl)Cl | 93.7 | 61.5 | 4.8 | 49.9 | 22.4 | – | 6.1 | 4.4 | – | – | inactive | inactive | 1.9 | – | – | – | – | – | – | –
